Results published in patent publication US6339042B1, “Herbicidal N-cyclohexadienyl heteroaryloxyacetamides” (American Cyanamid Co., priority 1999, dated 2002).

Experiments:
Glycine max [1] = experiment: Pre-emergence herbicidal evaluation, GLXMA; type: in vivo; details: three weeks after treatment
Source text: (§1) The treated pots are then placed on greenhouse benches, watered and cared for in accordance with conventional greenhouse procedures.

Oryza sativum [2] = experiment: Pre-emergence herbicidal evaluation, ORYSA; type: in vivo; details: three weeks after treatment
Source text: as §1

Hordeum vulgare [3] = experiment: Post-emergence herbicidal evaluation, HORVW; details: three weeks after treatment
Method: (§2) Each pot is examined three weeks after treatment and phytotoxicity is assessed according to the rating system set forth below.
(§3) These acetone solutions are diluted with water and the resulting formulations applied at dosage levels equivalent of about 0.4 to 0.1 kg per hectare of test compound per pot. After spraying the plants are placed on greenhouse benches and are cared for in the usual manner, commensurate with conventional greenhouse practices.

Triticum aestivum [4] = experiment: Post-emergence herbicidal evaluation, TRZAW; details: three weeks after treatment
Method: as §2, §3

Hordeum vulgare [5] = experiment: Pre-emergence herbicidal evaluation, HORVW; type: in vivo; details: three weeks after treatment
Source text: as §1

Amaranthus tuberculatus [6] = experiment: Pre-emergence herbicidal evaluation, AMATA; type: in vivo; details: three weeks after treatment
Source text: as §1

Echinochloa crus-galli [7] = experiment: Post-emergence herbicidal evaluation, ECHCG; details: three weeks after treatment
Echinochloa crus-galli [8] = experiment: Pre-emergence herbicidal evaluation, ECHCG; type: in vivo; details: three weeks after treatment
Source text: as §1

Setaria viridis [9] = experiment: Pre-emergence herbicidal evaluation, SETVI; type: in vivo; details: three weeks after treatment
Source text: as §1

Apera spica venti [10] = experiment: Pre-emergence herbicidal evaluation, APESV; type: in vivo; details: three weeks after treatment
Source text: as §1

Setaria viridis [11] = experiment: Post-emergence herbicidal evaluation, SETVI; details: three weeks after treatment
Lolium perenne [12] = experiment: Pre-emergence herbicidal evaluation, LOLPE; type: in vivo; details: three weeks after treatment
Source text: as §1

Lolium perenne [13] = experiment: Post-emergence herbicidal evaluation, LOLPE; details: three weeks after treatment
Method: as §2, §3

Zea mays [14] = experiment: Pre-emergence herbicidal evaluation, ZEAMX; type: in vivo; details: three weeks after treatment
Source text: as §1

Alopecurus myosuroides [15] = experiment: Pre-emergence herbicidal evaluation, ALOMY; type: in vivo; details: three weeks after treatment
Source text: as §1

Galium aparine = experiment: Post-emergence herbicidal evaluation, GALAP; details: three weeks after treatment
Oryza sativum [16] = experiment: Post-emergence herbicidal evaluation, ORYSA; details: three weeks after treatment
Glycine max [17] = experiment: Post-emergence herbicidal evaluation, GLXMA; details: three weeks after treatment
Apera spica venti [18] = experiment: Post-emergence herbicidal evaluation, APESV; details: three weeks after treatment
Amaranthus tuberculatus [19] = experiment: Post-emergence herbicidal evaluation, AMATA; type: in vivo; details: three weeks after treatment
Triticum aestivum [20] = experiment: Pre-emergence herbicidal evaluation, TRZAW; type: in vivo; details: three weeks after treatment
Source text: as §1

Zea mays [21] = experiment: Post-emergence herbicidal evaluation, ZEAMX; details: three weeks after treatment
Alopecurus myosuroides [22] = experiment: Post-emergence herbicidal evaluation, ALOMY; details: three weeks after treatment
Method: The compounds of the invention are tested for pre- and post-emergence herbicidal activity.
as §2, §3

CCN(C(=O)COc1nnc(C(F)(F)C(F)(F)F)s1)C1=CC(C)(C)CC(C)=C1 [Example 8]
7 (7 - Good herbicidal effect): phytotoxicity rating SETVI (Setaria viridis [9]; 0.800 kg/ha) | phytotoxicity rating LOLPE (Lolium perenne [13]; 0.200 kg/ha)
3 (3 - Moderate effect): phytotoxicity rating GLXMA (Glycine max [17]; 0.200 kg/ha)
8 (8 - Approaching complete kill): phytotoxicity rating ECHCG (Echinochloa crus-galli [8]; 0.800 kg/ha) | phytotoxicity rating APESV (Apera spica venti [10]; 0.400 kg/ha) | phytotoxicity rating LOLPE (Lolium perenne [13]; 0.400 kg/ha) | phytotoxicity rating ALOMY (Alopecurus myosuroides [15]; 0.800 kg/ha)
4 (4 - Injury): phytotoxicity rating ECHCG (Echinochloa crus-galli [8]; 0.200 kg/ha) | phytotoxicity rating ECHCG (Echinochloa crus-galli [8]; 0.400 kg/ha) | phytotoxicity rating SETVI (Setaria viridis [9]; 0.200 kg/ha) | phytotoxicity rating SETVI (Setaria viridis [9]; 0.400 kg/ha) | phytotoxicity rating LOLPE (Lolium perenne [12]; 0.200 kg/ha) | phytotoxicity rating ALOMY (Alopecurus myosuroides [15]; 0.200 kg/ha) | phytotoxicity rating GLXMA (Glycine max [17]; 0.400 kg/ha) | phytotoxicity rating APESV (Apera spica venti [18]; 0.200 kg/ha) | phytotoxicity rating ALOMY (Alopecurus myosuroides [22]; 0.200 kg/ha) | phytotoxicity rating ALOMY (Alopecurus myosuroides [22]; 0.400 kg/ha)
9 (9 - Complete kill): phytotoxicity rating APESV (Apera spica venti [10]; 0.800 kg/ha)
2 (2 - Slight effect): phytotoxicity rating HORVW (Hordeum vulgare [5]; 0.800 kg/ha) | phytotoxicity rating ORYSA (Oryza sativum [16]; 0.400 kg/ha) | phytotoxicity rating GLXMA (Glycine max [17]; 0.100 kg/ha)
1 (1 - Trace effect): phytotoxicity rating ORYSA (Oryza sativum [2]; 0.800 kg/ha) | phytotoxicity rating TRZAW (Triticum aestivum [4]; 0.400 kg/ha) | phytotoxicity rating HORVW (Hordeum vulgare [5]; 0.400 kg/ha) | phytotoxicity rating AMATA (Amaranthus tuberculatus [6]; 0.200 kg/ha) | phytotoxicity rating ECHCG (Echinochloa crus-galli [8]; 0.100 kg/ha) | phytotoxicity rating SETVI (Setaria viridis [9]; 0.100 kg/ha) | phytotoxicity rating LOLPE (Lolium perenne [12]; 0.100 kg/ha) | phytotoxicity rating LOLPE (Lolium perenne [13]; 0.100 kg/ha) | phytotoxicity rating ALOMY (Alopecurus myosuroides [15]; 0.100 kg/ha)
55 °C: melting point
6 (6 - Herbicidal effect): phytotoxicity rating AMATA (Amaranthus tuberculatus [6]; 0.800 kg/ha) | phytotoxicity rating LOLPE (Lolium perenne [12]; 0.400 kg/ha) | phytotoxicity rating LOLPE (Lolium perenne [12]; 0.800 kg/ha) | phytotoxicity rating ALOMY (Alopecurus myosuroides [15]; 0.400 kg/ha) | phytotoxicity rating APESV (Apera spica venti [18]; 0.400 kg/ha)
0 (0 - No effect): phytotoxicity rating GLXMA (Glycine max [1]; 0.100 kg/ha) | phytotoxicity rating GLXMA (Glycine max [1]; 0.200 kg/ha) | phytotoxicity rating GLXMA (Glycine max [1]; 0.400 kg/ha) | phytotoxicity rating GLXMA (Glycine max [1]; 0.800 kg/ha) | phytotoxicity rating ORYSA (Oryza sativum [2]; 0.100 kg/ha) | phytotoxicity rating ORYSA (Oryza sativum [2]; 0.200 kg/ha) | phytotoxicity rating ORYSA (Oryza sativum [2]; 0.400 kg/ha) | phytotoxicity rating HORVW (Hordeum vulgare [3]; 0.100 kg/ha) | phytotoxicity rating HORVW (Hordeum vulgare [3]; 0.200 kg/ha) | phytotoxicity rating HORVW (Hordeum vulgare [3]; 0.400 kg/ha) | phytotoxicity rating TRZAW (Triticum aestivum [4]; 0.100 kg/ha) | phytotoxicity rating TRZAW (Triticum aestivum [4]; 0.200 kg/ha) | phytotoxicity rating HORVW (Hordeum vulgare [5]; 0.100 kg/ha) | phytotoxicity rating HORVW (Hordeum vulgare [5]; 0.200 kg/ha) | phytotoxicity rating AMATA (Amaranthus tuberculatus [6]; 0.100 kg/ha) | phytotoxicity rating ECHCG (Echinochloa crus-galli [7]; 0.100 kg/ha) | phytotoxicity rating ECHCG (Echinochloa crus-galli [7]; 0.200 kg/ha) | phytotoxicity rating ECHCG (Echinochloa crus-galli [7]; 0.400 kg/ha) | phytotoxicity rating APESV (Apera spica venti [10]; 0.100 kg/ha) | phytotoxicity rating APESV (Apera spica venti [10]; 0.200 kg/ha) | phytotoxicity rating SETVI (Setaria viridis [11]; 0.100 kg/ha) | phytotoxicity rating SETVI (Setaria viridis [11]; 0.200 kg/ha) | phytotoxicity rating SETVI (Setaria viridis [11]; 0.400 kg/ha) | phytotoxicity rating ZEAMX (Zea mays [14]; 0.100 kg/ha) | phytotoxicity rating ZEAMX (Zea mays [14]; 0.200 kg/ha) | phytotoxicity rating ZEAMX (Zea mays [14]; 0.400 kg/ha) | phytotoxicity rating ZEAMX (Zea mays [14]; 0.800 kg/ha) | phytotoxicity rating GALAP (Galium aparine; 0.100 kg/ha) | phytotoxicity rating GALAP (Galium aparine; 0.200 kg/ha) | phytotoxicity rating ORYSA (Oryza sativum [16]; 0.100 kg/ha) | phytotoxicity rating ORYSA (Oryza sativum [16]; 0.200 kg/ha) | phytotoxicity rating APESV (Apera spica venti [18]; 0.100 kg/ha) | phytotoxicity rating AMATA (Amaranthus tuberculatus [19]; 0.100 kg/ha) | phytotoxicity rating AMATA (Amaranthus tuberculatus [19]; 0.200 kg/ha) | phytotoxicity rating AMATA (Amaranthus tuberculatus [19]; 0.400 kg/ha) | phytotoxicity rating TRZAW (Triticum aestivum [20]; 0.100 kg/ha) | phytotoxicity rating TRZAW (Triticum aestivum [20]; 0.200 kg/ha) | phytotoxicity rating TRZAW (Triticum aestivum [20]; 0.400 kg/ha) | phytotoxicity rating TRZAW (Triticum aestivum [20]; 0.800 kg/ha) | phytotoxicity rating ZEAMX (Zea mays [21]; 0.100 kg/ha) | phytotoxicity rating ZEAMX (Zea mays [21]; 0.200 kg/ha) | phytotoxicity rating ZEAMX (Zea mays [21]; 0.400 kg/ha) | phytotoxicity rating ALOMY (Alopecurus myosuroides [22]; 0.100 kg/ha)
5 (5 - Definite injury): phytotoxicity rating AMATA (Amaranthus tuberculatus [6]; 0.400 kg/ha) | phytotoxicity rating GALAP (Galium aparine; 0.400 kg/ha)
